Experimental data as given in patent US20080044491A1, “METAL-CONTAINING FORMULATIONS AND METHODS OF USE” (priority 2006, published 2008).
≈ marks a conversion by molar mass, not a printed value. Entries after “also recorded” stand apart in the source; their conditions may differ.

How the values were obtained:
[1] = Compatibility of nanocrystalline silver with excipients; assay type: physicochemical; conditions: 10% aqueous solution of excipient with nanocrystalline silver, glass vial, 40° C. overnight
[2] = test system: Enterobacter cloacae; experiment: MIC assay (microdilution); assay type: cell-based; conditions: Ent. cloacae
[3] = test system: Escherichia coli; experiment: MIC assay (microdilution); assay type: cell-based
[4] = test system: TNF-α; experiment: Immunohistochemical staining of colonic tissue; assay type: in vivo, rat; conditions: DNBS colitis, five days oral treatment
Description: (§1) Immunohistochemistry: A Universal Streptavidin/Biotin detection system (Thermo Shandon, Pittsburgh, Pa.) was used for immunohistochemical staining of formalin fixed, paraffin embedded biopsies of the colon. After dewaxing, and hydration, sections were treated with protein blocking agent to reduce non-specific binding of antibodies. The tissues were then incubated with rabbit anti-rat TNF-α, or mouse anti-rat IL-12 p70 antibodies (Biosource International, Inc, Camarillo, Calif.); rabbit anti-rat IL-1β (Serotec, Raleigh, N.C.) or rabbit anti-rat MMP-9 antibody (Chemicon International, Telecuma, Calif.) in 1% bovine serum albumin in phosphate buffered saline. Incubations with secondary antibodies, streptavidin/biotin, and chromogenic detection of peroxidase were performed according to the manufacturer's protocol. Sections were counterstained, dehydrated, mounted and examined. The intensity of the immuno-peroxidase staining was graded as described previously. Expression of cytokines was graded as: 0, no staining in the section; 1, less than 25% of the section; 2, 25-50% of the section; 3, 50-75% of the section; 4, >75% of the section with significant staining.

[5] = test system: MMP-9; experiment: Immunohistochemical staining of colonic tissue; assay type: in vivo, rat; conditions: vs placebo and no treatment (FIG. 19)
Description: as §1

[6] = test system: IL-1β; experiment: Immunohistochemical staining of colonic tissue; assay type: in vivo, rat; conditions: DNBS colitis, five days oral treatment
Description: as §1

[7] = DNBS-induced colitis in rat: body weight change; assay type: in vivo; conditions: rats with DNBS-induced colitis (FIGS. 10, 11)
Description: Animals: Male Sprague-Dawley rats, weighing approximately 250-300 gm were purchased from Charles River Laboratories (Raleigh, N.C.). The animals were housed under standard conditions with free access to food and water. They were acclimatized for 2-3 days before commencing the experiments. The study protocol was approved by the Institutional Animal Care and Use Committees (IACUC).
Induction of ulcerative colitis: Colitis was produced according to published methods. Animals were anesthetized by intraperitoneal injection of 75 mg/kg of ketamine plus 5 mg/kg of xylazine. A single intracolonic injection of 120 mg/ml of dinitrobenzenesulfonic acid (DNBS) (Sigma Chemicals, St. Louis, Mo.) in 250 micro liter of 50% ethanol was administered through a Tom Cat catheter (Kendall Sovereign, Mansfield, Mass.) with a closed-end tip, connected to a 1 ml syringe and placed 7 cm proximal to the anus. Lubricant was applied to the tip of the catheter before injection, to protect from mucosal injury. After instillation of DNBS, 0.5 ml of air was insufflated and the catheter was removed. […]
Macroscopic Observations: Body weight was recorded daily and the animals were examined for their physical appearance. […] After scoring of the consistency of the stool the colon was rinsed in normal saline, examined and thickness of the colonic wall and number and size of ulcers were scored. […]

[8] = test system: DNBS-induced colitis; experiment: DNBS-induced colitis in rat: total IBD score; assay type: in vivo
Description: Sulfasalazine (Sigma Chemicals, St Louis, Mo.), at a concentration of 120 mg/ml for intracolonic treatment and 30 mg/ml for oral treatment was used as the reference drug in all the experiments. Sulfasalazine was first dissolved in 0.1M NaOH at a concentration about 30-fold higher than the required final concentration, and then suspended in 1.5% PVA for oral dosing and 5.7% PVA for intracolonic dosing.
One group was not treated and served as no treatment group. Treatment began one day after administration of DNBS.
Macroscopic Observations: Body weight was recorded daily and the animals were examined for their physical appearance. After five days of treatment, animals were sacrificed. The colon was excised between the ileocecal junction and rectum, and opened longitudinally. After scoring of the consistency of the stool the colon was rinsed in normal saline, examined and thickness of the colonic wall and number and size of ulcers were scored. Stool consistency was graded on a scale of 0-3: 0=normal stool, well formed pellets rigid as normal; 1=loose stool, formed pellet with moisture, soft stool keeping in stool shape; 2=loose stool, stools that have abnormal form with much moisture, softer shapeless stool; 3=watery or bloody diarrhea.
Thickness of colonic wall was graded on a scale of 0-4: 0=normal, no thickness; 1=mild thickness in lower portion of the colon; 2=moderate thickness in localized area; 3=moderate thickness extending to the central portion of the colon; 4=severe thickness in the whole colon. Colonic ulceration was graded on a scale of 0-10: 0=no ulcers; 1=one small ulcer less than 2-3 mm; 2=one large ulcer more than 2-3 mm; 3=two large ulcerations more than 2-3 mm in diameter; 4=two or more sites of ulcerations extending 1 cm along the length; 5-10=when an area of ulceration extended more than 1 cm along the length of the colon, the score increases by 1 for each additional cm of involvement. The total IBD score, obtained by the sum of the scores of colonic ulcer, colon thickness and stool consistency for each animal, was calculated for each treatment group.
Statistical Analysis: The results are expressed as the mean ±SE. The statistical significance in the mean total IBD score, histopathological inflammation score, and the immunohistochemical staining of cytokines or MMP-9 was determined using Tukey-Kramer's multiple comparison tests following one-way analysis of variance (ANOVA). The data were calculated with the aid of Instat Graph Pad Software. Differences with a P value less than 0.05 were considered significant.
Methods: Colitis was induced in rats using DNBS as described in Example 25. Animals were treated intracolonically (250 μl of the test reagents) once a day for five days. […] Methods: Colitis was induced in rats using DNBS as described in Example 25. Animals were treated intracolonically (250 μl of the test reagents) once a day for five days.

[9] = test system: MMP-9; experiment: Gelatin zymography of colonic homogenates; assay type: in vivo, rat; conditions: oral 100 mg/kg
Description: Gelatin Zymography: Activities of MMP-9 and MMP-2 in colonic tissue homogenates were determined by gelatin zymography as described previously. Briefly, colonic homogenates were mixed with equal volume of zymograph sample buffer. Samples were loaded on a 10% SDS-polyacrylamide gel containing 0.1% gelatin. After electrophoresis, the SDS was removed from the gel by incubation with renaturing buffer containing 2% Triton-X-100 for 1 hour. The gel was incubated overnight in developing buffer containing 50 mM Tris-HCl, pH 7.8, 5 mM CaCl2, 0.2 M NaCl, 0.02% Brij-35. The gel was subsequently stained with Coumassie blue for 30 minutes and destained with destaining solution containing 8% acetic acid and 4% methanol. Gelatinolytic activity was determined as transparent bands against the blue background of stained gelatin. MMPs were identified by their molecular weight compared with the standards. Absence of a transparent band on the gel was evidenced as no MMP-9 or MMP-2 activity of the sample tested.

[10] = test system: DNBS-induced colitis; experiment: DNBS-induced colitis in rat: histopathological inflammation score of colon; assay type: in vivo; conditions: oral, 100 mg/kg, five days
Description: Histopathology: A piece of colonic tissue at 2-4 cm proximal to the anus was excised and fixed in 10% formalin and the sections were stained with hematoxylin and eosin. The remaining length of the colonic tissues was stored at −80° C. for subsequent biochemical assays. The histology slides were examined by a veterinary pathologist who was blinded to the treatment groups. The extent of microscopic mucosal damage of the colon was scored on scale of 0-5 as described with slight modification: 0=normal histological appearance; 1=histological damage limited to surface epithelium, mild infiltration of the submucosa; 2=focal ulceration and cell disruption limited to mucosa, abnormal appearance of colonic wall, mild infiltration of inflammatory cells; 3=focal, transmural inflammation and ulceration, with mild to moderate infiltration of inflammatory cells; 4=Extensive transmural ulceration and inflammation bordered by areas of normal mucosa, moderate infiltration of inflammatory cells; 5=extensive transmural ulceration and inflammation involving entire section from epithelium to serosa, severe infiltration of inflammatory cells.
Statistical Analysis: The results are expressed as the mean ±SE. […] The data were calculated with the aid of Instat Graph Pad Software. […]

[11] = test system: Mycobacterium tuberculosis H37Ra (ATCC 25177); assay type: cell-based
[12] = test system: Streptococcus pyogenes; experiment: MIC assay (microdilution); assay type: cell-based; conditions: lactate solutions, nanocrystalline silver = range for 12 samples
[13] = test system: Streptococcus pneumoniae; experiment: MIC assay (microdilution); assay type: cell-based; conditions: lactate solutions, nanocrystalline silver = range for 12 samples
[14] = test system: Pseudomonas aeruginosa; experiment: MIC assay (microdilution); assay type: cell-based; conditions: lactate solutions, nanocrystalline silver = range for 12 samples
[15] = test system: Staphylococcus aureus; experiment: MIC assay (microdilution); assay type: cell-based; conditions: lactate solutions, nanocrystalline silver = range for 12 samples
[16] = test system: Staphylococcus epidermidis; experiment: MIC assay (microdilution); assay type: cell-based; conditions: S. epiderm (ATCC); lactate solutions; nanocrystalline silver = range for 12 samples

Q: For `OCc1ccccc1` [Benzyl alcohol], which “Reaction with nanocrystalline silver” value [1] is on record?
A: Grey/slightly red

Q: Which “Reaction with nanocrystalline silver” value [1] does the source give for `CCCCCCCCCCCCCCCCCCO` [Cetearyl alcohol] here?
A: Light brown/green/black

Q: With `CCCCCCCCCCCCCCCCO` [Cetyl alcohol] as the compound, how does the “Reaction with nanocrystalline silver” value [1] read?
A: Grey color - no discoloration

Q: Which “Reaction with nanocrystalline silver” value [1] does the source give for `CCCCCCCCCCCCCCCCCC(=O)OCC(O)CO` (stereo not drawn) [Glycerol monostearate] here?
A: Brown discoloration

Q: Which “Reaction with nanocrystalline silver” value [1] does the source give for `CCCCCCCCCCCCCC(=O)OC(C)C` [Isopropyl myristate] here?
A: Grey color - no discoloration

Q: Which “Reaction with nanocrystalline silver” value [1] does the source give for `COC(=O)c1ccc(O)cc1` [Methylparaben] here?
A: Brown discoloration

Q: With `CC(O)CO` (stereo not drawn) [Propylene glycol] as the compound, how does the “Reaction with nanocrystalline silver” value [1] read?
A: Discoloration

Q: With `CCCOC(=O)c1ccc(O)cc1` [Propylparaben] as the compound, how does the “Reaction with nanocrystalline silver” value [1] read?
A: Green discoloration

Q: Which results are given for `OO` [Sample H2O2, hydrogen peroxide]?
A: Reaction with nanocrystalline silver [1]: Brown discoloration after drying; MIC ([2]; Catalase/SOD +): >500 µg/mL; MIC ([2]; Catalase/SOD −): 63 µg/mL (≈ 1850 µM); MIC ([3]; E. coli, Catalase/SOD +): >500 µg/mL; MIC ([3]; E. coli, Catalase/SOD −): 31 µg/mL (≈ 911 µM)

Q: With `O=C([O-])c1ccccc1.[Na+]` [Sodium benzoate] as the compound, how does the “Reaction with nanocrystalline silver” value [1] read?
A: White precipitate

Q: Which “Reaction with nanocrystalline silver” value [1] does the source give for `CCCCCCCCCCCCCCCCCC(=O)O` [Stearic acid] here?
A: Grey color - no discoloration

Q: Which “Reaction with nanocrystalline silver” value [1] does the source give for `CCOCCOCCO` [Transcutol, diethylene glycol monoethyl ether] here?
A: Grey color - no discoloration

Q: What does the source list for `O=C(O)c1cc(/N=N/c2ccc(S(=O)(=O)Nc3ccccn3)cc2)ccc1O` [sulfasalazine, salicylazosulfapyridine]?
A: expression of TNF-α (immunohistochemical staining) [4]: significantly reduced the expression; expression of MMP-9 (immunohistochemical staining) [5]: significantly reduced the expression; expression of IL-1β (immunohistochemical staining) [6]: significantly reduced the expression; body weight change [7]: started gaining body weight after one day of treatment; total IBD score vs placebo ([8]; intracolonic, 100 mg/kg, five days): Significant reduction; also recorded: significantly reduced total IBD score; total IBD score vs placebo ([8]; intracolonic, 100 mg/kg, five days, listed as Sulfasalazine): significantly reduced total IBD score; total IBD score ([8]; oral, 100 mg/kg, five days): significant reduction; MMP-9 activity (gelatin zymography) [9]: reduced MMP-9 activity; histopathological inflammation vs placebo and untreated [10]: significantly reduced

Q: For Sodium parabens, which “Reaction with nanocrystalline silver” value [1] is on record?
A: Precipitation

Q: What does the source list for silver oxide [Ag2O]?
A: minimum inhibitory concentration (MIC) [11]: 2.5 μg/ml silver; MIC ([12]; S. pyog (clin. 303)): 2 µg/mL; MIC ([12]; S. pyog (clin. 304)): 3 µg/mL; MIC ([13]; S. pneumo (clin 314)): 3 µg/mL; MIC ([13]; S. pneumo (clin 315)): 2 µg/mL; MIC ([14]; P. aerug (ATCC)): 0.8 µg/mL; MIC ([14]; P. aerug. (clin.)): 2 µg/mL; MIC ([15]; S. aureus (ATCC)): 3 µg/mL; MIC ([15]; S. aureus (clin.)): 6 µg/mL; MIC [16]: 2 µg/mL; total IBD score vs placebo ([8]; intracolonic 250 μl once a day for five days, 0.25% homogenized): unable to show significant reduction; total IBD score vs placebo ([8]; intracolonic 250 μl once a day for five days, 0.25% sonicated nanodispersion): but not 0.25% sonicated; total IBD score vs placebo ([8]; intracolonic 250 μl once a day for five days, 0.5% homogenized): unable to show significant reduction; total IBD score vs placebo ([8]; intracolonic 250 μl once a day for five days, 0.5% sonicated nanodispersion): significantly reduced the total IBD score; total IBD score vs placebo ([8]; intracolonic 250 μl once a day for five days, 1.5% sonicated nanodispersion): significantly reduced the total IBD score; MIC ([3]; E. coli (ATCC), lactate solutions, nanocrystalline silver = range for 12 samples): 0.8 µg/mL
